In patent US6962909B2, “Treatment of neovascularization disorders with squalimine” (Genaera Corporation, priority 1995, dated 2005):
In brackets after ≈: the same amount, converted by molar mass. Entries after “also recorded” stand apart in the source; their conditions may differ.

What was measured:
NHE2 = conditions: cited from earlier work
NHE3 = NHE3 (Rattus norvegicus, UniProt P26433); conditions: cited from earlier work
NHE1 = NHE1 (Homo sapiens, UniProt P19634); conditions: cited from earlier work
MTT (Table II) = type: cell-based
Source text: As set forth in Table II, which follows Table I, the activities of natural and synthetic aminosterols in the different assays vary. In light of the foregoing, it is now possible to screen for steroids with or without squalamine-like pharmacological activity.

[1] = Fasting blood glucose in mice; type: in vivo
Procedure: To study the effect of steroid administrator or the NHE responsible for secretion of insulin, several of the aminosterols from shark liver were administered to fasting mice. Male CD-1 mice were assigned to one of four treatment groups. Whole blood glucose was tested using glucometer (Lifescan Glucometer II and One Touch test strips). Statistical analysis was via one-way analysis of variance (ANOVA) followed by subsequent Bonferonni's t-test.

[2] = tested on: Stage 59-60 Xenopus tadpoles; assay: Xenopus tadpole assay; type: in vivo, Xenopus laevis; conditions: 10 μg/ml in water; for Pharmacological response observed in tadpole: about 1 hour
Source text: A newly developed assay employing tadpoles, preferably Xenopus laevis Stages 59-60, were employed to study the effect of a compound by monitoring capillary occlusion in the tadpole's tail. […] The compounds of the invention affect the shape, viability and integrity of the embryonic tissues while not affecting the adult tissues, providing a powerful, highly specific screen. For example, substances that destroy all of the animal's epithelium, both adult and embryonic, could be regarded as toxic.
In this assay, tadpoles are introduced into Petri dishes containing a solution of the test compound in distilled water, preferably about 100 ml. The preferred concentration of the test compound is from about 1 μg/ml to about 10 μg/ml. The volume of liquid is sufficient for the animal to swim freely and drink from the solution. Thus, the effect observed results from oral absorption and subsequent systemic distribution of the agent. If the volume of liquid is not sufficient to permit oral intake, the effects that are observed would result from absorption through the surface epithelium. Thus, this simple assay can identify if an compound has characteristics of oral availability.
After an amount of time, typically about 60 minutes, the occlusion of blood flow through capillaries in the tadpole's tail are observed under an inverted microscope at a magnification of roughly 100×.
The tadpole assay described above provides an advantageous way to determine the pharmacological targets of each steroid when introduced into a mammal, and to determine pharmacological categories into which synthetic compounds belong. In the assay, each of the steroids was dissolved in 100 ml of distilled water at a concentration of 10 μg/ml. Stage 59-60 Xenopus tadpoles were introduced and evaluated by light microscopy and gross observation 1 hour later.

[3] = tested on: Human ovarian carcinoma SKOV3; assay: In vitro cell growth inhibition (assay of Baker et al.); type: cell-based
Procedure: As set forth in Table 7 below, all malignant tumors evaluated in tissue culture, endothelial cells and vascular smooth muscle cells were sensitive to inhibition. Thus, compound 1436 has application in the control of growth factor dependent proliferation of many types of tissue.
Using the assay described above, the anticancer effects of compound 1437 against several cancer lines was assessed.

[4] = tested on: PHA-stimulated human lymphocytes; assay: Inhibition of mitogen-stimulated growth of human T-cells; type: cell-based; conditions: 72 hours
Procedure: Human heparinized blood, freshly collected, was introduced into tissue culture flasks containing 10 μg/ml phytohaemagglutinin (PHA) in RPMI medium with 10% FCS. Various purified steroids were introduced subsequently at concentrations of 1, 5, and 10 μg/ml. Cultures were incubated for 72 hours, after which time colcemid was added to 1 μg/ml. Cultures were maintained for an additional 2 hours, and cells collected. Mitotic figures were estimated using standard cytochemical techniques, following Giemsa staining.

[5] = tested on: vitelline capillaries of 3- to 5-day chick embryo; assay: Chick embryo vitelline capillary regression assay; type: in vivo; parameters: key to Vascular reactivity (capillary regression): + = Vascular reactivity; 0 = No vascular reactivity; +/− = Equivocal reactivity; conditions: for Vascular reactivity (capillary regression): 60 minutes
Procedure: Using the chick embryo vitelline capillaries assay, compounds were tested for their ability to induce capillary regression. Each compound was applied in 0.1 ml of 15% Ficol 400 and PBS onto the embryo, and vascular regression was assessed after 60 minutes.
The 3-day chick embryo consists of an embryonic disc from which numerous vessels emerge and return, forming a “figure 8”-shaped structure—the embryo in the center with vascular loops extending outward over both poles. […] Following a lag period of around 15 minutes, the constriction of continuity between capillary and secondary vessels, generally on the “venous” side, was observed. Continued pulsatile blood flow progressed, resulting in a “swelling” of the blind tube, followed by a pinching off of the remaining connection and formation of an enclosed vascular sac resembling a “blood island.” This process progressed until only the largest vessels remained intact.

[6] = tested on: L1210 lymphoblastic leukemia cells; assay: Mouse model of L1210 leukemia
Procedure: C57B mice were inoculated with L1210 lymphoblastic leukemia cells at an inoculum that causes leukemia in 100% of animals. Mice received compound 1436 at 1, 5, 10 mg/kg every 3 days intraperitoneally.
Of particular interest is the hematological profile determined during the course of treatment. Animals were treated with cisplatin and compound 1436.

C. albicans = assay: Antibiotic activity, MIC; conditions: Candida albicans
S. aureus = assay: Antibiotic activity, MIC; type: cell-based; conditions: Staphylococcus aureus
E. coli = assay: Antibiotic activity, MIC; type: cell-based; conditions: Escherichia coli
P. aerug = assay: Antibiotic activity, MIC
B16 melanoma = assay: Growth of B16 melanoma in C57B mice; type: in vivo; conditions: subcutaneous administration
Procedure: The growth of B16 melanoma in C57B mice is dependent upon neovascularization.
Using the growth of B16 melanoma cells in C57B mice, a recognized model for the evaluation of inhibitors of angiogenesis on the growth of cancers, the effects of subcutaneous, intraperitoneal and oral administration of squalamine were evaluated.
Animals were implanted with B16 melanoma followed by treatment with compound 1436 or 1256 administered in a combined schedule or separately. […] Thus, a combination of these two compounds achieves a therapeutic benefit in tumors dependent on neovascularization that may prevent metastatic spread.

Mouse IV PK study = conditions: in vivo
Procedure: To assess clearance, a mouse IV PK study was performed for compound 319 and squalamine. The compound was administered i.v. and blood samples were taken every 10 minutes. The concentration of the administered steroid was determined by HPLC analysis.

[7] = tested on: human microvascular cells; assay: Endothelial cord formation assay; type: cell-based
Source text: Endothelial cells have the capacity in vitro to form tubular aggregates resembling capillaries in various early stages of formation. This conversion occurs under relatively specific conditions, in which essential growth factors along with an effective substratum are provided. It has been shown that both the interaction of growth factors with the endothelial cell and its attachment to a substratum activate the NHE. The activation of this exchanger is believed to be required for subsequent morphologic transformation of the endothelial cell into a multicellular tubular structure.
To assess the effect of compounds on the cord-like structures formed by human microvascular cells when plated in the presence of VGEF (Vascular Endothelial Growth Factor) and basic fibroblast growth factor on a collagen matrix, a standard cord formation assay was used.

[8] = mice with 5 × 10^5 L1210 cells ip, cisplatin 8 mg/kg ip, compound 1436 10 mg/kg ip q4d

Sequence of NHE3 (P26433 29-831): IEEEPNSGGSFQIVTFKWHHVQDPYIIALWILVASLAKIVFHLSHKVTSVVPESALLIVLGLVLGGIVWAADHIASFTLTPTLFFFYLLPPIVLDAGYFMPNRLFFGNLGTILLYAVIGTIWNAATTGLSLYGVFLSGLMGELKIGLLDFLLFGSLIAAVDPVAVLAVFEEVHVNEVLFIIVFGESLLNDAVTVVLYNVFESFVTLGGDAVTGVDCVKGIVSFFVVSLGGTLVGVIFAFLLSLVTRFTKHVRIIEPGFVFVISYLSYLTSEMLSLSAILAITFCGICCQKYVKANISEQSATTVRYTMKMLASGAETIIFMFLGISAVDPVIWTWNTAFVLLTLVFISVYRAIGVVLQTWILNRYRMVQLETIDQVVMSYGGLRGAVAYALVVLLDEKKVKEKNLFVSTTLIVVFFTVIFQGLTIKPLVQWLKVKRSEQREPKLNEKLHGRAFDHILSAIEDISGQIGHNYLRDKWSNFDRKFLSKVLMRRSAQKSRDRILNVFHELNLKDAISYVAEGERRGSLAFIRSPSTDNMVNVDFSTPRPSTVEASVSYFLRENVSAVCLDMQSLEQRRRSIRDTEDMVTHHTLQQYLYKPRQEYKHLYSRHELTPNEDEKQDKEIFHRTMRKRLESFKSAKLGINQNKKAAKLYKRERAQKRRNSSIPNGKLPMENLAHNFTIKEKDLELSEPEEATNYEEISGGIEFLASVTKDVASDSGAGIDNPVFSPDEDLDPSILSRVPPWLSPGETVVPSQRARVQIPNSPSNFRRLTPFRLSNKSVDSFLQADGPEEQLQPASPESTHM
Sequence of NHE1 (P19634 whole entry, species assumed): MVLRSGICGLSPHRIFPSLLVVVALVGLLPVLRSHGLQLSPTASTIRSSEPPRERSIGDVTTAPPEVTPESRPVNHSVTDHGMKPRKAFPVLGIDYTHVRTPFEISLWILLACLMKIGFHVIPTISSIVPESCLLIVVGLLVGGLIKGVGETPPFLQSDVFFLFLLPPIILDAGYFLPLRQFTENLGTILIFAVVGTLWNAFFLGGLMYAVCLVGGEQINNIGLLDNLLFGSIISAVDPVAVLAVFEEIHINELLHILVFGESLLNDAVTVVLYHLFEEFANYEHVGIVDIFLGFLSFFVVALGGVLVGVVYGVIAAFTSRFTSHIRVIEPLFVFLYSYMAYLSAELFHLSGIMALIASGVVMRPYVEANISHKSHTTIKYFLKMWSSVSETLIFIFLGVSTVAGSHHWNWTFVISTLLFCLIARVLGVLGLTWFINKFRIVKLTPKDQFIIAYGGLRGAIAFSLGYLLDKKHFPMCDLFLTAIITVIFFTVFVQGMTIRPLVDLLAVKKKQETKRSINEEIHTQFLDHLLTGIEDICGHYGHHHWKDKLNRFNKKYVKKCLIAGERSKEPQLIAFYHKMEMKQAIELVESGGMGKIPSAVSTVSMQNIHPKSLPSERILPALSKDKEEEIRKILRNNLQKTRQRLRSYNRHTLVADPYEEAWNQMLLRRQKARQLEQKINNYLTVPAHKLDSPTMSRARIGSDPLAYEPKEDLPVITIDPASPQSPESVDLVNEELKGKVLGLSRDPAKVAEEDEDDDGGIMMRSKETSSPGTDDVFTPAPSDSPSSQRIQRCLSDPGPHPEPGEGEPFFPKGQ

Compound: CS(=O)(=O)c1cc(C(=O)NC(=N)N)ccc1N1CCCCC1 [(3-methylsulfonyl-4-piperidinobenzoyl) guanidine methanesulfonate]
- Ki (NHE2): 5 µM
- Ki (NHE3): 650 µM
- Ki (NHE1): 0.16 µM

Compound: CC(CC[C@@H](OS(=O)(=O)O)C(C)C)[C@H]1CCC2C3C(CC[C@@]21C)[C@@]1(C)CC[C@H](NCCCNCCCCNCCCN)C[C@@H]1C[C@H]3O (some centres unmarked) [drawing 170]
- MTT (MTT (Table II)): 67 µg/mL

Compound: dimethylamiloride [DMA]
- Ki (NHE2): 0.7 µM
- Ki (NHE3): 11 µM
- Ki (NHE1): 0.1 µM

Compound: N=C(N)NC(=O)c1nc(Cl)c(N)nc1N [Amiloride]
- Ki (NHE2): 3 µM
- Ki (NHE3): 100 µM

Compound: CC(CCC(CO)(OS(=O)(=O)O)C(C)C)[C@H]1CCC2C3C(CC[C@@]21C)[C@@]1(C)CC[C@H](NCCCNCCCCN)C[C@@H]1C[C@H]3O (some centres unmarked) [Compound 1437]
- Effect on blood glucose ([1]; intravenous, 1436 in D5W (5% glucose), 1437 in water): caused hyperglycemia in mice
- Fasting Blood Glucose Mean + SEM ([1]; male CD-1 mice, 2 × 10 mg/kg i.v. (total 20 mg/kg), overnight fast, blood 30 min. after 2d dose, 1437 and 1256 in H2O, 1436 in D5W): 82 ± 15.3 mg/dL
- Pharmacological response observed in tadpole [2]: Epithelium covering the embryonic portions of the animal, such as the tail and antennae, began to slough off in sheets; also recorded: the larval skin was observed to shed off in a sheet
- Anticancer activity [3]: exhibit anticancer activity
- Inhibition of PHA-stimulated human lymphocytes ([4]; 10 μg/ml): 10 % control

Compound: CC(COS(=O)(=O)O)C(=O)CCC(C)[C@H]1CCC2C3C(CC[C@@]21C)[C@@]1(C)CC[C@H](NCCCNCCCCN)C[C@@H]1C[C@H]3O (some centres unmarked) [Compound 1360]
- Pharmacological response observed in tadpole [2]: Swelling and lysis of certain erythrocytes occurred, resulting in accumulation of nuclei within certain small vessels of the tail
- Pharmacological response observed in tadpole ([2]; listed as compound 1360): extensive vasocclusion occurred within 60 minutes throughout the tail
- Vascular reactivity (capillary regression) ([5]; 1 μg applied): 0
- Effect on blood circulating through the embryonic vessels ([5]; within 20 minutes of application): exhibited a brighter red color
- Inhibition of PHA-stimulated human lymphocytes ([4]; 1 μg/ml): 5 % control
- Inhibition of PHA-stimulated human lymphocytes ([4]; 5 μg/ml): 5 % control
- Inhibition of PHA-stimulated human lymphocytes ([4]; 10 μg/ml): 5 % control

Compound: N.N.[Cl][Pt][Cl] [Cisplatin, reference compound]
- Hematological profile during treatment ([6]; by day 28): developed a profound anemia by day 28
- RBC, Early Time [6, 8]: 9.4 10^6/mm^3
- RBC, Late Time [6, 8]: 1.5 10^6/mm^3
- WBC, Early Time [6, 8]: 8.1 10^3/mm^3
- WBC, Late Time [6, 8]: 18.1 10^3/mm^3

Compound: CC(C)CCCC(C)[C@H]1CCC2C3CC[C@H]4C[C@@H](NCCCCN)CC[C@]4(C)C3CC[C@@]21C (some centres unmarked)
- MIC (C. albicans): > 256 µg/mL
- MIC (S. aureus): 16 µg/mL (≈ 34.9 µM)
- MIC (E. coli): > 256 µg/mL
- MIC (P. aerug): > 256 µg/mL

Compound: CC(CC[C@@H](OS(=O)(=O)O)C(C)C)[C@H]1CCC2C3C(CC[C@@]21C)[C@@]1(C)CC[C@H](NCCCNCCCCN)C[C@@H]1C[C@H]3O (some centres unmarked) [drawing 164]
- MTT (MTT (Table II)): 32 µg/mL

Compound: COC(=O)CCC(C)[C@H]1CCC2C3C(CC[C@@]21C)[C@@]1(C)CCC(NCCCNCCCCNCCCN)C[C@@H]1C[C@H]3O (some centres unmarked)
- MIC (C. albicans): 64 µg/mL (≈ 108 µM)
- MIC (S. aureus): 4 µg/mL (≈ 6.77 µM)
- MIC (E. coli): 32 µg/mL (≈ 54.2 µM)
- MIC (P. aerug): 64 µg/mL (≈ 108 µM)

Compound: CC(CCC(=O)O)[C@H]1CCC2C3C(CC[C@@]21C)[C@@]1(C)CC[C@@H](NCCCNCCCCN)C[C@@H]1C[C@H]3O (some centres unmarked)
- MIC (C. albicans): 32 µg/mL (≈ 61.6 µM)
- MIC (S. aureus): 16 µg/mL (≈ 30.8 µM)
- MIC (E. coli): 64 µg/mL (≈ 123 µM)
- MIC (P. aerug): 32 µg/mL (≈ 61.6 µM)

Compound: CC(CCC(=O)O)[C@H]1CCC2C3CC[C@H]4C[C@@H](NCCCNCCCCN)CC[C@]4(C)C3CC[C@@]21C (some centres unmarked) [Compound 319]
- Pharmacological category in tadpole assay (similarity to a reference steroid) [2]: common vascular occlusive effect
- Vascular reactivity (capillary regression) ([5]; 0.001 μg applied): +/−
- Vascular reactivity (capillary regression) ([5]; 0.01 μg applied): +
- Vascular reactivity (capillary regression) ([5]; 0.1 μg applied): +
- Vascular reactivity (capillary regression) ([5]; 1 μg applied): +
- Vascular reactivity (capillary regression) ([5]; 10 μg applied): +
- Control of B16 melanoma (B16 melanoma): achieved control of B16 in C57B mice to an extent almost comparable to squalamine
- half-life (Mouse IV PK study): ~14 min
- Effect on endothelial cord formation ([7]; 0.01 μg/ml): −
- Effect on endothelial cord formation ([7]; 0.1 μg/ml): +
- Effect on endothelial cord formation ([7]; 1.0 μg/ml): +
- Effect on endothelial cord formation ([7]; 10.0 μg/ml): +

Compound: CC(CCC(=O)O)[C@H]1CCC2C3C(CC[C@@]21C)[C@@]1(C)CC[C@H](NCCCNCCCCN)C[C@@H]1C[C@H]3O (some centres unmarked)
- MIC (C. albicans): 128 µg/mL (≈ 246 µM)
- MIC (S. aureus): 32 µg/mL (≈ 61.6 µM)
- MIC (E. coli): 64 µg/mL (≈ 123 µM)
- MIC (P. aerug): 32 µg/mL (≈ 61.6 µM)

Compound: CC(C)CCCC(C)[C@H]1CCC2C3CC[C@H]4C[C@H](NCCCCN)CC[C@]4(C)C3CC[C@@]21C (some centres unmarked)
- MIC (C. albicans): 64 µg/mL (≈ 139 µM)
- MIC (S. aureus): 4 µg/mL (≈ 8.72 µM)
- MIC (E. coli): > 256 µg/mL
- MIC (P. aerug): > 256 µg/mL

Compound: CC(C)CCCC(C)[C@H]1CCC2C3CC[C@H]4C[C@@H](NCCCNCCCCNCCCN)CC[C@]4(C)C3CC[C@@]21C (some centres unmarked) [drawing 96]
- Cord Formation, Minimum Effective Concentration [7]: 10 µg/mL
- MTT (MTT (Table II)): 19 µg/mL

Compound: CCCN(C)c1nc(N)c(C(=O)N=C(N)N)nc1Cl [MPA, methylpropylamiloride]
- Ki (NHE2): 5 µM
- Ki (NHE3): 10 µM
- Ki (NHE1): 0.08 µM

Compound: CC(C)C(O)CCC(C)[C@H]1CCC2C3C(CC[C@@]21C)[C@@]1(C)CC[C@H](NCCCNCCCCN)C[C@@H]1C[C@H]3O (some centres unmarked)
- MIC (C. albicans): 64 µg/mL (≈ 117 µM)
- MIC (S. aureus): 4 to 16 µg/mL (≈ 7.3 to 29.2 µM)
- MIC (E. coli): 32 µg/mL (≈ 58.4 µM)
- MIC (P. aerug): 128 µg/mL (≈ 234 µM)
